{
  "source": "patent US11572540B2",
  "about": "“Method for inducing oligodendrocyte precursor cells from OCT4-induced human somatic cells through direct reprogramming” (Stemlab Inc., priority 2015, dated 2023)",
  "tested_on": "Oct4-introduced Sox10::eGFP fibroblasts",
  "assay": "FACS analysis of Sox10::eGFP reporter expression after low molecular weight substance treatment",
  "type": "cell-based, human",
  "settings": "10 μM forskolin added to ATVP medium",
  "source_text": "The inventors have established conditions capable of inducing neural stem cells from mouse cells only with a low molecular weight substance without gene introduction (KR 10-1357402). Accordingly, to establish new conditions capable of inducing human somatic cells into OPCs on the basis of the low molecular weight substance that had been established in the previous study, a low molecular weight substance was selected using a Sox10 reporter system (Sox10::eGFP), which is a gene known to be important in development of oligodendrocytes (FIG. 1). When Oct4 gene-introduced cells were cultured in a reprogramming medium (RM: DMEM with high Glucose+5% knock out serum replacement (KSR)+1% penicillin/streptomycin+1% non-essential amino acids+20 ng/ml basic FGF (bFGF)+20 ng/ml human recombinant platelet derived growth factor (PDGF)+50 μg/ml ascorbic acid), one week after induction, it was confirmed that a cell length was shorter and a cell size was smaller through mesenchymal to epithelial transition (MET), thereby forming an epithelial-like colony. […]",
  "data": [
    {"smiles": "C=C[C@@]1(C)CC(=O)[C@]2(O)[C@@]3(C)[C@@H](O)CCC(C)(C)[C@@H]3[C@H](O)[C@H](OC(C)=O)[C@@]2(C)O1", "note": "[forskolin]", "values": [
      {"measurement": "Sox10::eGFP expression (GFP+ distribution, FACS)", "result": 3.31, "unit": "%"}
    ]}
  ]
}
